Twelve molecules from US7687511B2, “Substituted dihydropyrimidines, dihydropyrimidones and dihydropyrimidinethiones as calcium channel blockers” (priority 2002, dated 2010) can be followed below.

The structures appear in SMILES notation.

The molecule `CCCCCCCCCCCCCCCc1cccc(OCC)c1C1NC(=O)NC(C)=C1C(=O)OC` (stereo not drawn) [PPK-23, 5-methoxycarbonyl-4-(2-ethoxy-6-pentadecylphenyl)-6-methyl-3,4-dihydropyrimidin-2(1H)-one] gave a melting point of 127 to 129 °C.

Turning to `CCCCCCCCCCCCCCCc1cccc(OC)c1C1NC(=O)NC(C)=C1C(=O)OC` (stereo not drawn) [PPK-24, 5-methoxycarbonyl-4-(2-methoxy-6-pentadecylphenyl)-6-methyl-3,4-dihydropyrimidin-2(1H)-one], the melting point fell in the range of 101 to 102 °C.

As for `CCCCCCCCCCCCCCCc1cccc(OCC)c1C1NC(=O)NC(C)=C1C(=O)OCC` (stereo not drawn) [PPK-25, 5-ethoxycarbonyl-4-(2-ethoxy-6-pentadecylphenyl)-6-methyl-3,4-dihydropyrimidin-2(1H)-one], the melting point was in the range of 99 to 100 °C.

Take `CCCCCCCCCCCCCCCc1cccc(OC)c1C1C(C(=O)OC)=C(C)NC(=O)N1C(=O)OCC` (stereo not drawn) [PPK-30, 3,6-dihydro-4-methyl-6-[2-methoxy-6-pentadecylphenyl]-2-oxo-1,5-(2H)-pyrimidinedicarboxylic acid 1-ethyl 5-methyl diester]: the melting point lay within 121 to 122 °C.

For the molecule `CCCCCCCCCCCCCCCc1cccc(OC)c1C1C(C(=O)OCC)=C(C)NC(=O)N1C(=O)OCC` (stereo not drawn) [PPK-31, 3,6-dihydro-4-methyl-6-[2-methoxy-6-pentadecylphenyl]-2-oxo-1,5-(2H)-pyrimidinedicarboxylic acid bis(ethyl ester)], the melting point fell in the range of 109 to 110 °C.

In the case of `CCCCCCCCCCCCCCCc1cccc(OC(C)C)c1C1C(C(=O)OCC)=C(C)NC(=O)N1C(=O)OCC` (stereo not drawn) [PPK-37, 3,6-dihydro-4-methyl-6-[2-isopropoxy-6-pentadecylphenyl]-2-oxo-1,5-(2H)-pyrimidinedicarboxylic acid 1,5-diethyl diester], the melting point fell in the range of 90 to 92 °C.

For `CCCCCCCCCCCCCCCc1cccc(OC(C)C)c1C1C(C(=O)OC)=C(C)NC(=O)N1C(=O)OCC` (stereo not drawn) [PPK-36, 3,6-dihydro-4-methyl-6-[2-isopropoxy-6-pentadecylphenyl]-2-oxo-1,5-(2H)-pyrimidinedicarboxylic acid 1-ethyl 5-methyl diester], the melting point was in the range of 120 to 121 °C.

`CCCCCCCCCCCCCCCc1cccc(OC)c1C1NC(=O)NC(C)=C1C(=O)OCC` (stereo not drawn) [PPK-22, 5-ethoxycarbonyl-4-(2-methoxy-6-pentadecylphenyl)-6-methyl-3,4-dihydropyrimidin-2(1H)-one] registered a melting point of 91 to 93 °C.

Molecule `CCCCCCCCCCCCCCCc1cccc(OC)c1C1C(C(=O)OC(C)C)=C(C)NC(=O)N1C(=O)OCC` (stereo not drawn) [PPK-32, 3,6-dihydro-4-methyl-6-[2-methoxy-6-pentadecylphenyl]-2-oxo-1,5-(2H)-pyrimidinedicarboxylic acid 1-ethyl 5-isopropyl diester] gave a melting point of 100 °C.

On to `CCCCCCCCCCCCCCCc1cccc(OCC)c1C1C(C(=O)OCC)=C(C)NC(=O)N1C(=O)OCC` (stereo not drawn) [PPK-34, 3,6-dihydro-4-methyl-6-[2-ethoxy-6-pentadecylphenyl]-2-oxo-1,5-(2H)-pyrimidinedicarboxylic acid 1,5-diethyl diester], for which the melting point was 112 °C.

As for `CCCCCCCCCCCCCCCc1cccc(OC(C)C)c1C1C(C(=O)OC(C)C)=C(C)NC(=O)N1C(=O)OCC` (stereo not drawn) [PPK-38, 3,6-dihydro-4-methyl-6-[2-isopropoxy-6-pentadecylphenyl]-2-oxo-1,5-(2H)-pyrimidinedicarboxylic acid 1-ethyl 5-isopropyl diester], the melting point was in the range of 88 to 90 °C.

With `CCCCCCCCCCCCCCCc1cccc(OCC)c1C1C(C(=O)OC)=C(C)NC(=O)N1C(=O)OCC` (stereo not drawn) [PPK-33, 3,6-dihydro-4-methyl-6-[2-ethoxy-6-pentadecylphenyl]-2-oxo-1,5-(2H)-pyrimidinedicarboxylic acid 1-ethyl 5-methyl diester], the melting point worked out at 103 °C.

As a reminder, the melting point is the temperature, or range, at which the solid turns liquid.
